In ChEMBL document CHEMBL4879553, “Data for DCP probe BAY1125976” (2021):
pKi: −log10 of the molar value. The source made the active and inactive calls. The rule behind the calls is not given here.

Experiments:
[1] = NanoBRET (AKT1); conditions: Homo sapiens
[2] = target: RAC-gamma serine/threonine-protein kinase (Homo sapiens, UniProt Q9Y243); experiment: NanoBRET (AKT3)
[3] = target: Muscarinic acetylcholine receptor M1 (Homo sapiens, UniProt P11229); experiment: GPCRScan assay: inhibition of M1; design: radioligand conc. used [nm] 0.3 – 1.2, parental cells stable CHO
[4] = Mechanistic cell assay: Reduction of the basal levels of AKT phosphorylation in KPL-4 cells at T308; format: cell-based; conditions: Homo sapiens, KPL4
[5] = Mechanistic cell assay: Reduction of the basal levels of AKT phosphorylation in KPL-4 cells at S473; format: cell-based; conditions: Homo sapiens, KPL4
[6] = Mechanistic cell assay: Blocking of the activation of the downstream signaling molecule 4EBP1 by phosphorylation at mTOR substrate T70; design: species or system Homo sapiens
[7] = Mechanistic cell assay: Inhibition of activation by phosphorylation (AKT1-S473); conditions: Homo sapiens
[8] = Mechanistic cell assay: Inhibition of activation by phosphorylation (4EBPI-T70); conditions: Homo sapiens
[9] = Mechanistic cell assay: Inhibition of phosphorylation (AKT1-S473); conditions: Homo sapiens
[10] = Mechanistic cell assay: Inhibition of phosphorylation (T308); conditions: Homo sapiens
[11] = Mechanistic cell assay: Inhibition of phosphorylation (4EBPI-T70); conditions: Homo sapiens
[12] = Mechanistic cell assay: inhibition of PRAS40 phosphorylation at T246; conditions: Homo sapiens
[13] = NanoBRET (AKT2); conditions: Homo sapiens
[14] = target: 5-hydroxytryptamine receptor 1A (Homo sapiens) (UniProt P08908); conditions: Compound concentration 10.0 uM
[15] = target: 5-hydroxytryptamine receptor 1B (Homo sapiens) (UniProt P28222); conditions: Compound concentration 10.0 uM
[16] = target: 5-hydroxytryptamine receptor 1D (Homo sapiens) (UniProt P28221); conditions: Compound concentration 10.0 uM
[17] = target: 5-hydroxytryptamine receptor 2A (Homo sapiens) (UniProt P28223); conditions: Compound concentration 10.0 uM
[18] = target: 5-hydroxytryptamine receptor 2B (Homo sapiens) (UniProt P41595); conditions: Compound concentration 10.0 uM
[19] = target: 5-hydroxytryptamine receptor 2C (Homo sapiens) (UniProt P28335); conditions: Compound concentration 10.0 uM
[20] = target: 5-hydroxytryptamine receptor 3A (Homo sapiens) (UniProt P46098); conditions: Compound concentration 10.0 uM
[21] = target: 5-hydroxytryptamine receptor 5A (Homo sapiens) (UniProt P47898); conditions: Compound concentration 10.0 uM
[22] = target: 5-hydroxytryptamine receptor 6 (Homo sapiens) (UniProt P50406); conditions: Compound concentration 10.0 uM
[23] = target: 5-hydroxytryptamine receptor 7 (Homo sapiens) (UniProt P34969); conditions: Compound concentration 10.0 uM
[24] = target: D(1A) dopamine receptor (Homo sapiens) (UniProt P21728); conditions: Compound concentration 10.0 uM
[25] = target: D(2) dopamine receptor (Homo sapiens) (UniProt P14416); conditions: Compound concentration 10.0 uM
[26] = target: D(3) dopamine receptor (Homo sapiens) (UniProt P35462); conditions: Compound concentration 10.0 uM
[27] = target: D(4) dopamine receptor (Homo sapiens) (UniProt P21917); conditions: Compound concentration 10.0 uM
[28] = target: D(1B) dopamine receptor (Homo sapiens) (UniProt P21918); conditions: Compound concentration 10.0 uM
[29] = target: Sodium-dependent serotonin transporter (Homo sapiens) (UniProt P31645); conditions: Compound concentration 10.0 uM
[30] = target: Sodium-dependent noradrenaline transporter (Homo sapiens) (UniProt P23975); conditions: Compound concentration 10.0 uM
[31] = target: Sodium-dependent dopamine transporter (Homo sapiens) (UniProt Q01959); conditions: Compound concentration 10.0 uM
[32] = target: Mu-type opioid receptor (Homo sapiens) (UniProt P35372); conditions: Compound concentration 10.0 uM
[33] = target: Delta-type opioid receptor (Homo sapiens) (UniProt P41143); conditions: Compound concentration 10.0 uM
[34] = target: Kappa-type opioid receptor (Homo sapiens) (UniProt P41145); conditions: Compound concentration 10.0 uM
[35] = target: Histamine H1 receptor (Homo sapiens) (UniProt P35367); conditions: Compound concentration 10.0 uM
[36] = target: Histamine H2 receptor (Homo sapiens) (UniProt P25021); conditions: Compound concentration 10.0 uM
[37] = target: Histamine H3 receptor (Homo sapiens) (UniProt Q9Y5N1); conditions: Compound concentration 10.0 uM
[38] = target: Alpha-1A adrenergic receptor (Homo sapiens) (UniProt P35348); conditions: Compound concentration 10.0 uM
[39] = target: Alpha-1B adrenergic receptor (Homo sapiens) (UniProt P35368); conditions: Compound concentration 10.0 uM
[40] = target: Alpha-2A adrenergic receptor (Homo sapiens) (UniProt P08913); conditions: Compound concentration 10.0 uM
[41] = target: Alpha-2B adrenergic receptor (Homo sapiens) (UniProt P18089); conditions: Compound concentration 10.0 uM
[42] = target: Alpha-2C adrenergic receptor (Homo sapiens) (UniProt P18825); conditions: Compound concentration 10.0 uM
[43] = target: Beta-1 adrenergic receptor (Homo sapiens) (UniProt P08588); conditions: Compound concentration 10.0 uM
[44] = target: Beta-2 adrenergic receptor (Homo sapiens) (UniProt P07550); conditions: Compound concentration 10.0 uM
[45] = target: Muscarinic acetylcholine receptor M1 (Homo sapiens) (UniProt P11229); conditions: Compound concentration 10.0 uM
[46] = target: Muscarinic acetylcholine receptor M2 (Homo sapiens) (UniProt P08172); conditions: Compound concentration 10.0 uM
[47] = target: Muscarinic acetylcholine receptor M3 (Homo sapiens) (UniProt P20309); conditions: Compound concentration 10.0 uM
[48] = target: Muscarinic acetylcholine receptor M4 (Homo sapiens) (UniProt P08173); conditions: Compound concentration 10.0 uM
[49] = target: Muscarinic acetylcholine receptor M5 (Homo sapiens) (UniProt P08912); conditions: Compound concentration 10.0 uM
[50] = target: Beta-3 adrenergic receptor (Homo sapiens) (UniProt P13945); conditions: Compound concentration 10.0 uM
[51] = target: GABA-A receptor; anion channel (Rattus norvegicus) (UniProt O09028+P15431+P18506+P18508+P19969+P20236+P23574+P23576+P28471+P28473+P30191+P62813+P63079+P63138+Q91ZM7+Q9ES14); conditions: Compound concentration 10.0 uM
Rattus norvegicus = species on record: Rattus norvegicus; conditions: Compound concentration 10.0 uM
[52] = target: Alpha-1D adrenergic receptor (Homo sapiens) (UniProt P25100); conditions: Compound concentration 10.0 uM
[53] = target: Sigma intracellular receptor 2 (Homo sapiens) (UniProt Q5BJF2); conditions: Compound concentration 10.0 uM
[54] = target: Sigma non-opioid intracellular receptor 1 (Homo sapiens) (UniProt Q99720); conditions: Compound concentration 10.0 uM

Chain of Muscarinic acetylcholine receptor M1 (P11229 whole entry): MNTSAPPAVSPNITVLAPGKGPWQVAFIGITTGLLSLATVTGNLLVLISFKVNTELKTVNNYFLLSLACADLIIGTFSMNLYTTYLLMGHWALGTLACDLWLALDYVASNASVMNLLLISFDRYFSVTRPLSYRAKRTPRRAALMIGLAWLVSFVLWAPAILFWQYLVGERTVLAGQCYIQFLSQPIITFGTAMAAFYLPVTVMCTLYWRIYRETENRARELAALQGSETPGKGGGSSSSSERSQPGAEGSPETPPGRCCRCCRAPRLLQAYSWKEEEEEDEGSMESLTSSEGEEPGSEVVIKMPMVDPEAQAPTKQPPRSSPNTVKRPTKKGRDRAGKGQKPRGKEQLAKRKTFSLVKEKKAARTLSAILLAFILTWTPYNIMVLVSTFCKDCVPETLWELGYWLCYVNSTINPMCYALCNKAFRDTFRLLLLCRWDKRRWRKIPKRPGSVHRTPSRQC
Chain of 5-hydroxytryptamine receptor 1D (Homo sapiens) (P28221 whole entry): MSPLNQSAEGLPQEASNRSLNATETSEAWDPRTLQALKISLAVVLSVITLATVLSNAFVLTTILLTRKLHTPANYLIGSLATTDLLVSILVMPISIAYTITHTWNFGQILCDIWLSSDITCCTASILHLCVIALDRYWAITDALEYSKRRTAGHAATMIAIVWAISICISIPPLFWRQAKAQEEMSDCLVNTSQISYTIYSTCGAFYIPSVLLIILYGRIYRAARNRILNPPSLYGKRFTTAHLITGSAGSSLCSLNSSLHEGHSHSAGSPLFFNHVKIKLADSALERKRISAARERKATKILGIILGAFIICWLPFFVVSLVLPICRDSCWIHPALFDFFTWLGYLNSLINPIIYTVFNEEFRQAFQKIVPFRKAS
Chain of 5-hydroxytryptamine receptor 2C (Homo sapiens) (P28335 whole entry): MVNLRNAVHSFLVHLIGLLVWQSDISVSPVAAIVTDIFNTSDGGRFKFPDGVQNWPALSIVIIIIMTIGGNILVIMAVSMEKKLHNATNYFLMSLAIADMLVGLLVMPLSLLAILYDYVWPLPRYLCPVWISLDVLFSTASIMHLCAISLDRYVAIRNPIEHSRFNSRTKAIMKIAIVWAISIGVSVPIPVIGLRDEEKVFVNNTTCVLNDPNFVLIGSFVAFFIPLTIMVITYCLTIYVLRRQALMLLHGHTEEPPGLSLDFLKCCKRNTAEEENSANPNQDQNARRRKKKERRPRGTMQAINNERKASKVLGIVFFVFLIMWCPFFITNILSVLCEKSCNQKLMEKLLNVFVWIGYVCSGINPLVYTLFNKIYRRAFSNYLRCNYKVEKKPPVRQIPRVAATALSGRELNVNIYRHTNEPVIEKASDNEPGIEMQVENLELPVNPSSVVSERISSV
Chain of D(1B) dopamine receptor (Homo sapiens) (P21918 whole entry): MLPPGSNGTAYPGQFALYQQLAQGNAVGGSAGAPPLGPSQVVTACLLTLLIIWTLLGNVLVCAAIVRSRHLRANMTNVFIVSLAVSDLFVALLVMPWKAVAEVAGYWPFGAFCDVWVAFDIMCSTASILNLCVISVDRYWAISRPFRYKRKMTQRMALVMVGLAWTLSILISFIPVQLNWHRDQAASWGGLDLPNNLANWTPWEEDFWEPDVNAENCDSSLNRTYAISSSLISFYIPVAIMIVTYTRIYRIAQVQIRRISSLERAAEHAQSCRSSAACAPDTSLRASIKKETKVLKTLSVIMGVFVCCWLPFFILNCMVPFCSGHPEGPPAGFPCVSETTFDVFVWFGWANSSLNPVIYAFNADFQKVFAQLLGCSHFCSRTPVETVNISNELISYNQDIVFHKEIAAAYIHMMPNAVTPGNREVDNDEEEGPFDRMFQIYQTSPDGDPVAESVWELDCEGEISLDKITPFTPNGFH
Chain of Histamine H3 receptor (Homo sapiens) (Q9Y5N1 whole entry): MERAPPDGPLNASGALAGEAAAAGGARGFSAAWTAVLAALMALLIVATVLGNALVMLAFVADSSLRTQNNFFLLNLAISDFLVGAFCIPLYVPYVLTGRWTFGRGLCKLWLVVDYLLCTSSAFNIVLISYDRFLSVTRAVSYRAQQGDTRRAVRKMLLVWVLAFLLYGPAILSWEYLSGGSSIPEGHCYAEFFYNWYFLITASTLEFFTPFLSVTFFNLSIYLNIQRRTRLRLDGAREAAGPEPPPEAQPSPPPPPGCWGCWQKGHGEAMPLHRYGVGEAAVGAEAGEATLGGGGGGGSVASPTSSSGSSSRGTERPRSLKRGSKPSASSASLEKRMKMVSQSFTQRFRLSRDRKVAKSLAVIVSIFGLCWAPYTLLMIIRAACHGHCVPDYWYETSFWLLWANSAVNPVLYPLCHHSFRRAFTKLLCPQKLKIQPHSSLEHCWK
Chain of Muscarinic acetylcholine receptor M4 (Homo sapiens) (P08173 whole entry): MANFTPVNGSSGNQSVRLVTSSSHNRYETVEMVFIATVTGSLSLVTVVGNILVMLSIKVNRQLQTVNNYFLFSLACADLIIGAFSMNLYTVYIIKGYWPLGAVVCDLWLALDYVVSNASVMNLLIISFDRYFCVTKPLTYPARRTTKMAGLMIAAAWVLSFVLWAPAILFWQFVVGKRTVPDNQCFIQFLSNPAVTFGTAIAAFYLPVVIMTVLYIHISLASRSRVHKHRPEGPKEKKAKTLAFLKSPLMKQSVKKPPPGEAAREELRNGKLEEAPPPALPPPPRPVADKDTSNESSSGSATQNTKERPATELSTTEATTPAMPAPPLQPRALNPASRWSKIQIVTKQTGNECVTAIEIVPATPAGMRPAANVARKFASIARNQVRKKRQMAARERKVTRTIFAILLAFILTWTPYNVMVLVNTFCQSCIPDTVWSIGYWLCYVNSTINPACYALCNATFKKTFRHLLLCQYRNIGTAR
Chain of Muscarinic acetylcholine receptor M1 (Homo sapiens) (P11229 whole entry): as the sequence (P11229 whole entry) above
Chain of Sodium-dependent noradrenaline transporter (Homo sapiens) (P23975 whole entry): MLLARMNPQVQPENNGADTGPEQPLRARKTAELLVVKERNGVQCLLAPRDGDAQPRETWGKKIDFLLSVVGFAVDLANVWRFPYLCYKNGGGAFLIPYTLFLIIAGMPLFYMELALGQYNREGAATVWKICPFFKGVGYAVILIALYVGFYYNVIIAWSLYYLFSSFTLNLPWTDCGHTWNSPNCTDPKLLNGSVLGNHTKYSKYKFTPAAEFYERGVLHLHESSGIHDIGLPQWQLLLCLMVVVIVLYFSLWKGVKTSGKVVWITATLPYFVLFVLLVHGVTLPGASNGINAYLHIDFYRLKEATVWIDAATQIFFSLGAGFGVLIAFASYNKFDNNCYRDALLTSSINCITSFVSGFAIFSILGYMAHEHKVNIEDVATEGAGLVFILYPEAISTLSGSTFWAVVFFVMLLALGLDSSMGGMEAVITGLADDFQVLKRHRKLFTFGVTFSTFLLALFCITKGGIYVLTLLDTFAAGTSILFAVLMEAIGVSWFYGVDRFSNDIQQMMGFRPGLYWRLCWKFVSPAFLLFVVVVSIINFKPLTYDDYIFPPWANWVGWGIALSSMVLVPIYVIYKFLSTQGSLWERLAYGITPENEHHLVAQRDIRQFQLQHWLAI
Chain of D(3) dopamine receptor (Homo sapiens) (P35462 whole entry): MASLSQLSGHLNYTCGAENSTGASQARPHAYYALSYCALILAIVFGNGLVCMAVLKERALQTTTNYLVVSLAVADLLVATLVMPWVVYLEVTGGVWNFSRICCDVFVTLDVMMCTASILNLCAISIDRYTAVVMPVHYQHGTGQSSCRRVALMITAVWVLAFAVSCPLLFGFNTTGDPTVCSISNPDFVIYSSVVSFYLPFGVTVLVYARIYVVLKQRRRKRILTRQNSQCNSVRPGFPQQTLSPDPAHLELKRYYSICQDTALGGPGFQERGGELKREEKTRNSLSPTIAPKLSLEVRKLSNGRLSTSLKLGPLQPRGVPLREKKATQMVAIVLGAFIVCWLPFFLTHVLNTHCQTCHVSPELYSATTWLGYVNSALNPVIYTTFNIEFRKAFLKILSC
Chain of Alpha-1D adrenergic receptor (Homo sapiens) (P25100 whole entry): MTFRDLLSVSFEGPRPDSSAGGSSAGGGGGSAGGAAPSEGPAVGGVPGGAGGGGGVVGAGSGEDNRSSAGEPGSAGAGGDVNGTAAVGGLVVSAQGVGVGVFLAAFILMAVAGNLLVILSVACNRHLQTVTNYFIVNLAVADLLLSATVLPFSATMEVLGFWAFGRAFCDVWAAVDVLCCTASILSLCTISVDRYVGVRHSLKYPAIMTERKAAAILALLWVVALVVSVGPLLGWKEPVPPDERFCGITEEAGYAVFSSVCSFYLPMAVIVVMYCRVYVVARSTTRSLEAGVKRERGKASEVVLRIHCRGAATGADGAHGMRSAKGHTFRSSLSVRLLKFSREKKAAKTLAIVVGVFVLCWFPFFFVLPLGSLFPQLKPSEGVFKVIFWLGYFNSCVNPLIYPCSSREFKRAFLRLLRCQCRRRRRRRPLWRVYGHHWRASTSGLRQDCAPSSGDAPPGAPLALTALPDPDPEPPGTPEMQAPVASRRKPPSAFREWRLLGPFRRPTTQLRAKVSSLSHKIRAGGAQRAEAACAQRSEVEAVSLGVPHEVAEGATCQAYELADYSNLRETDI
Chain of Sodium-dependent dopamine transporter (Homo sapiens) (Q01959 whole entry): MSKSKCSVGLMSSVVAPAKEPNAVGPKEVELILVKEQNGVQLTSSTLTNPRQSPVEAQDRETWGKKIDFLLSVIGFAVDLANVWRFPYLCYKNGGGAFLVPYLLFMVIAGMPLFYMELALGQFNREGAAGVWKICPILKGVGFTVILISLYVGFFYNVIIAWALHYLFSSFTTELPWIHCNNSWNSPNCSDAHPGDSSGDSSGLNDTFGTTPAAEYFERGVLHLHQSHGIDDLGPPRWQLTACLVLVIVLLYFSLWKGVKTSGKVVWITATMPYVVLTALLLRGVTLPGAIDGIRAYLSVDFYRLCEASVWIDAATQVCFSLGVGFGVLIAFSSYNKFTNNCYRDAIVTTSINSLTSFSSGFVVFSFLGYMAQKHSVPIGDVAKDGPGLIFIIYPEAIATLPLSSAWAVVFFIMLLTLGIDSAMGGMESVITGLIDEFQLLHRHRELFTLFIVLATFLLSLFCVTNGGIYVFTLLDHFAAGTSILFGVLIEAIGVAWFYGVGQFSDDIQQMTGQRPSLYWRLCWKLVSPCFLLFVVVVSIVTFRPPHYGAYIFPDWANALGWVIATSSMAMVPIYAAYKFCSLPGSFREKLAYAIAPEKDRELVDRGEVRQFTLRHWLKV

NC1(c2ccc(-c3nc4c(O)ccnn4c3-c3ccccc3)cc2)CCC1
EC50 [1]: 1.3 µM (not active)
IC50 [1]: 6 µM (not active)
EC50 [2]: > 50 µM (not active)

NC(=O)c1ccc2nc(-c3ccc(C4(N)CCC4)cc3)c(-c3ccccc3)n2n1 [BAY-1125976]
pKi ([3]; read-out: Ki): 5.84
Ki ([3]; read-out: pKi (converted)): 1.35 µM
IC50 [4]: 0.0009 µM (active)
IC50 [5]: 0.0011 µM (active)
IC50 [6]: 0.035 µM (active)
IC50 [7]: 0.035 µM (active)
IC50 [8]: 0.1 µM (active)
IC50 [9]: 0.0008 µM (active)
IC50 [10]: 0.0056 µM (active)
IC50 [11]: 0.035 µM (active)
IC50 [12]: 0.141 µM (active)
EC50 [1]: 0.015 µM (active)
IC50 [1]: 0.00284 µM (active)
EC50 [13]: 0.03 µM (active)
IC50 [13]: 0.0107 µM (active)
inhibition [14]: 32.7%
inhibition [15]: 10.2%
inhibition [16]: 12.2%
inhibition [17]: 8.08%
inhibition [18]: 13.4%
inhibition [19]: 25.7%
inhibition [20]: 10.8%
inhibition [21]: 9.78%
inhibition [22]: 17.8%
inhibition [23]: 12.9%
inhibition [24]: -3.8%
inhibition [25]: -1.55%
inhibition [26]: 22.6%
inhibition [27]: 7.35%
inhibition [28]: 23.4%
inhibition [29]: 14.8%
inhibition [30]: 47.5%
inhibition [31]: 40%
inhibition [32]: 31.1%
inhibition [33]: 26.9%
inhibition [34]: 25.4%
inhibition [35]: 30.8%
inhibition [36]: 0.95%
inhibition [37]: 14.6%
inhibition [38]: 39.4%
inhibition [39]: -8.97%
inhibition [40]: 6.89%
inhibition [41]: 28.7%
inhibition [42]: 38.9%
inhibition [43]: 16.8%
inhibition [44]: 21.5%
inhibition [45]: 71.9%
inhibition [46]: 11.2%
inhibition [47]: 20.1%
inhibition [48]: 12.4%
inhibition [49]: 1.83%
inhibition [50]: 11.4%
inhibition [51]: 38%
inhibition (Rattus norvegicus): 40.5%
inhibition [52]: 37.8%
inhibition [53]: 39.9%
inhibition [54]: -1.31%
